Laboratory results published in patent US20090209525A1, “ENABLING METHODS TO IDENTIFY ALLOSTERIC MODULATORS OF RECEPTOR ACTIVITY” (priority 2006, published 2009).
Residue numbers refer to the chain shown, from its start. Like-named read-outs stand apart in the source and are kept apart here.

Key:
rat M1 Y381A receptor = target: T1, rat M1 Y381A receptor (Rattus norvegicus, UniProt P08482, Y381A); assay: R-SAT functional assay, Y381A mutant; format: cell-based; conditions: M1 Y381A; for EC50: read-out: pEC50 (converted)
T1 construct: expressed in transfected cells; host or cells: NIH-3T3
T1 sequence (P08482 1-460 Y381A): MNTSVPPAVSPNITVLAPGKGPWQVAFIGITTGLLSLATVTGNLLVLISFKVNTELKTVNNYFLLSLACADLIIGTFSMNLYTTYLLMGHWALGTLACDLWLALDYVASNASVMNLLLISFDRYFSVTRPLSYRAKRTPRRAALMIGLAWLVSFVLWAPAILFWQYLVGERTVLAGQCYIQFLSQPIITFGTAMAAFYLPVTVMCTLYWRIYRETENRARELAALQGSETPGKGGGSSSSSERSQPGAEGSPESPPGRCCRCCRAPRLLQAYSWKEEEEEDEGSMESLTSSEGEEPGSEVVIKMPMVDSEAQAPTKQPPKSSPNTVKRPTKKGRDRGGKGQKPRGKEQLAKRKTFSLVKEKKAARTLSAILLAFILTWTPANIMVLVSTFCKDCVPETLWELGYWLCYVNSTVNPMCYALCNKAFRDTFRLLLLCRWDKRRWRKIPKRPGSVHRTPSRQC
Procedure: Cells are co-transfected for 18 h with DMEM containing 0.08 micrograms/ml of an expression vector for the expression of the mutant receptor and 0.3 micrograms/ml pSI-Bgal (Promega, Madison Wis.), and 0.5% v/v Polyfect (Qiagen, Valencia Calif.), as recommended by the manufacturer. On day three, the medium is replaced with DMEM containing 1% PSG, 0.5% calf serum, 2% cyto-sf3 (Kemp Biotechnologies, Frederick, Md.), and varying concentrations of the compounds to be tested. Cells are grown in a humidified atmosphere with 5% ambient CO2 for 5 days. The media is removed from the plates, and beta-galactosidase activity is measured by the addition of o-nitrophenyl -d-galactopyranoside in phosphate-buffered saline with 5% Nonidet P-40. […] The following equation is fitted to the data using GraphPad Prism software (San Diego, Calif.):
NIH-3T3 cells were grown in 96-well tissue culture plates to 70 to 80% confluence in Dulbecco's modified essential media (DMEM) supplemented with 100 units/ml penicillin, 100 micrograms/ml streptomycin, 0.3 mg/ml L-glutamine (1% PSG, GIBCO) and 10% calf serum (Sigma-Aldrich). Cells were transfected for 18 h with DMEM containing 0.08 micrograms/ml receptor DNA and 0.3 micrograms/ml pSI-Bgal (Promega, Madison Wis.), 0.5% v/v Polyfect (Qiagen, Valencia Calif.). Medium was replaced with DMEM containing 1% PSG, 0.5% calf serum, 2% cyto-sf3 (Kemp Biotechnologies, Frederick, Md.), and varying concentrations of ligand. […] Cells were grown in a humidified atmosphere with 5% ambient CO2 for 5 days. Medium was removed from the plates, and beta-galactosidase activity was measured by the addition of o-nitrophenyl -d-galactopyranoside in phosphate-buffered saline with 5% Nonidet P-40.
Receptor Selection and Amplification (R-SAT™) Assays: R-SAT™ functional assays were carried out as follows. NIH-3T3 cells were grown in 96-well tissue culture plates to 70 to 80% confluence in Dulbecco's modified essential media (DMEM) supplemented with 100 units/ml penicillin, 100 micrograms/ml streptomycin, 0.3 mg/ml L-glutamine (1% PSG, GIBCO) and 10% calf serum (Sigma-Aldrich). Cells were transfected for 18 h with DMEM containing 0.08 micrograms/ml receptor DNA and 0.3 micrograms/ml pSI-Bgal (Promega, Madison Wis.), 0.5% v/v Polyfect (Qiagen, Valencia Calif.). The transfected cells were frozen away. Cells were thawed and added to 96 well plates with DMEM containing 1% PSG, 0.5% calf serum, 2% cyto-sf3 (Kemp Biotechnologies, Frederick, Md.), and varying concentrations of ligand.
In an effort to further characterize monoamine modulators, we used a panel of mutant muscarininc M1 receptors to analyze the activity and potency of orthosteric modulators and various allosteric modulators at those receptors.

[1] = target: T2, rat M1 wild-type receptor (RM1) (Rattus norvegicus, UniProt P08482); assay: ^3H-NMS radioligand binding, wild-type; conditions: for Shift: Ki divided by Ki for wild-type (reference)
T2 construct: expressed in transfected cells
T2 sequence (P08482 1-460): T1 sequence (P08482 1-460 Y381A) with A381Y
Procedure: Briefly, cell homogenates are prepared from cells transiently or stably expressing wild type or mutant receptors. For transiently transfected cells, HEK cells are transfected with receptor of interest and cells harvested 48 hours post transfection. Cells expressing the receptor, stably or transiently, are harvested using phosphate buffered saline containing 5 mM EDTA, cells centrifuged at low speed and pellet re-suspended in binding buffer. Cell suspension is polytroned and centrifuged at 15,000×g. The pellet is resuspended in binding buffer and centrifugation repeated two more times. The washed cell homogenates are used for the competition binding assays. Competition binding assays are carried out in the presence of fixed amount of cell homogenate, fixed concentration of radioactively labeled orthosteric or allosteric ligand and varying concentrations of the cal under study using appropriate buffer. Incubations are carried out at room temperature for 2 hours. Incubations are terminated by filtration onto GF/B filters using Packard cell harvester followed by 3 washes with ice-cold buffer. Radioactivity retained on the filters is quantitated using Packard Top Count using Microscint 20 scintillation fluid. […] The membranes prepared above are incubated with a labeled ligand in 25 mM sodium phosphate, 5 mM magnesium chloride, 0.01% BSA two hours at room temperature. The binding reaction is stopped by rapid filtration onto GF/B filters. […] The pKd values (pKd=−log Kd) of the labeled ligand are calculated.
Radioligand binding assays were carried out in 25 mM sodium phosphate, 5 mM magnesium chloride, 0.01% BSA. Incubations were for two hours at room temperature, and reactions were stopped by rapid filtration onto GF/B filters.

[2] = Table 4, maximum response relative to xanomeline
[3] = Table 10, maximum response relative to AC-42

SMILES | % Eff (rat M1 Y381A receptor; [2]) | EC50 (rat M1 Y381A receptor; Table 4) | EC50 (rat M1 Y381A receptor; Table 10, NA = non-active) | % Eff (rat M1 Y381A receptor; [3]) | IC50 [1] | Shift [1]
CCCCC1CCN(CCCC(=O)c2ccccc2C)CC1 [AC-42, 4-n-butyl-1-[4-(2-methylphenyl)-4-oxo-1-butyl] piperidine hydrogen chloride] | 46% | 316 nM | 3160 nM | 102% | 5010 nM | 1
CCCCC1CCN(CCCN2C(=O)COc3cc(F)ccc32)CC1 [AC-260584, 4-[3-(4-Butyl-piperidin-1-yl)-propyl]-7-fluoro-4H-benzo [1,4]oxazin-3-one] | 60% | 79.4 nM | 63.1 nM | 168% | 1260 nM | 1
Clc1ccc2c(c1)N=C(N1CCNCC1)c1ccccc1N2 [NDMC, 8-chloro-11-(1-piperazinyl)-5H-dibenzo [b,e] [1,4] diazepine] | 95% | 158 nM | 158 nM | 330% | 158 nM | 1
